Laboratory results reported in patent US10251889B2, “Substituted pyrazolo[1,5-a]pyrimidine compounds as Trk kinase inhibitors” (Array BioPharma, Inc., priority 2009, dated 2019).
Like-named read-outs stand apart in the source and are kept apart here.

Key:
Type in all cases: biochemical
[1] = molecular target: Jak2 (human Jak2 kinase domain, amino acids 808-1132) (Homo sapiens (Human), UniProt O60674); assay: Jak2 inhibition assay (Omnia kinase assay); details: 1000 nM test compound
[2] = molecular target: Jak1 (GST-tagged human Jak1 kinase domain, amino acids 866-1154) (Homo sapiens (Human), UniProt P23458); assay: Jak1 inhibition assay (Omnia kinase assay); details: read-out: Jak1 (% inhibition at 1000 nM); Table 2; 1000 nM test compound
Description: (§1) The assays described in Examples C, D, E and F for the determination of JAK1, JAK2, JAK3 and Tyk2 kinase activity, respectively, utilized the Omnia® Kinase fluorescence peptide substrate-based technology (Invitrogen). […] The reactions were therefore read at excitation 360 nm and emission was measured at 485 nm every 50 seconds for 45 minutes using a PerkinElmer EnVision Multilabel Plate Reader.
(§2) The final buffer conditions for each of the JAK1, JAK2, JAK3 and Tyk2 assays were as follows: 25 mM HEPES, pH 7.4, 10 mM MgCl2, 0.01% Triton X-100 and 1 mM DTT.
(§3) Compounds were prepared at 50× the final concentration in DMSO by conducting 3-fold serial dilutions from a 500-μM or 1000-μM intermediate dilution to give a 10-point dosing curve having a high dose of 10 or 20 μM. Two-μL aliquots of these were transferred to a fresh plate for a ten-fold intermediate dilution with assay buffer. Five-μL aliquots of the diluted compounds were then transferred to 20-μL of assay mixtures described in Examples C, D, E and F for a final concentration of DMSO of 2%. A standard or reference compound was typically included on each assay plate to validate that plate. For each plate, percent of control (POC) values were calculated for each well according to the following equation:
(§4) where Xmax=Average Uninhibited Controls • Xmin=Average Background IC50's were estimated from the POC's using a standard 4-parameter logistic model:
(§5) where A=Minimum Y (Bottom Asymptote) • B=Maximum Y (Top Asymptote) • C=EC50 • D=Slope Factor • X=Compound Concentration (nM) • Y=POC
(§6) The IC50 is defined as the concentration of inhibitor at which the POC equals 50 for the fitted curve.
Compounds of Formula I were screened for their ability to inhibit Jak1 using the general enzyme inhibition assay method, in which the assay mixture contained 500 μM ATP, 8 μM Omnia® Y12 peptide (Catalog # IVGN KPZ3121C; Invitrogen Corporation, Carlsbad, Calif.) and 5 nM Jak1 in a total volume of 20 μL. […] (catalog # IVGN PV4774).

[3] = molecular target: Jak3 (GST-tagged human Jak3 kinase domain, amino acids 781-1124) (Homo sapiens (Human), UniProt P52333); assay: Jak3 inhibition assay (Omnia kinase assay); details: read-out: Jak3 (% inhibition at 1000 nM); Table 2; 1000 nM test compound
Description: as §1, §2, §3, §4, §5, §6
Compounds of Formula I were screened for their ability to inhibit Jak3 using the general enzyme inhibition assay method, in which the assay mixture contained 500 μM ATP, 10 μM Omnia® Y7 peptide (Catalog # IVGN KNZ3071C, Invitrogen Corporation, Carlsbad, Calif.) and 1.5 nM Jak3 in a total volume of 20 μL. GST-tagged human Jak3 kinase domain comprising amino acids 781-1124 was purchased from Invitrogen Corporation, Carlsbad, Calif. (catalog # IVGN PV3855).

[4] = molecular target: Tyk2 (human Tyk2 kinase domain, amino acids 886 to 1187) (Homo sapiens (Human), UniProt P29597); assay: Tyk2 inhibition assay (Omnia kinase assay); details: read-out: Tyk2 (% inhibition at 1000 nM); Table 2; 1000 nM test compound
Description: as §1, §2, §3, §4, §5, §6
Compounds of Formula I were screened for their ability to inhibit Tyk2 using the general enzyme inhibition assay method, in which the assay mixture contained 500 μM ATP, 8 μM Omnia® Y12 peptide (Catalog # IVGN KPZ3121C; Invitrogen Corporation, Carlsbad, Calif.) and 1 nM Tyk2 in a total volume of 20 μL. Human Tyk2 kinase domain, comprising amino acids 886 to 1187 with 10 additional histidine residues (histidine tag) on the carboxy terminus, was expressed and purified from baculovirus in-house at Array BioPharma Inc. (Boulder, Colo.). The histidine tag was cleaved after purification using standard conditions.

[5] = read-out: Jak2 (% inhibition at 1000 nM), Table 2
[6] = read-out: Jak2 Enzyme (% inhibition at 1000 nM), Table 1

Sequence of Jak3 (GST-tagged human Jak3 kinase domain, amino acids 781-1124) (P52333 781-1124): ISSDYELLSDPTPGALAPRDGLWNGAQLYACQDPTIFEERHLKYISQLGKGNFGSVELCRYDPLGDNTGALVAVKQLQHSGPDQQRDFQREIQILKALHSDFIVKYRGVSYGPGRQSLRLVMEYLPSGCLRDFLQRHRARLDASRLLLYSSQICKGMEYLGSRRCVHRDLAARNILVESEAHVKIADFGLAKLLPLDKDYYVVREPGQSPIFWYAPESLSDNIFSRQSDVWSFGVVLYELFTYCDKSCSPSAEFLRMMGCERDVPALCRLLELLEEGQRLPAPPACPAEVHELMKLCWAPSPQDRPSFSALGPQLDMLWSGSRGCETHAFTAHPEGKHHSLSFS
Sequence of Tyk2 (human Tyk2 kinase domain, amino acids 886 to 1187) (P29597 886-1187): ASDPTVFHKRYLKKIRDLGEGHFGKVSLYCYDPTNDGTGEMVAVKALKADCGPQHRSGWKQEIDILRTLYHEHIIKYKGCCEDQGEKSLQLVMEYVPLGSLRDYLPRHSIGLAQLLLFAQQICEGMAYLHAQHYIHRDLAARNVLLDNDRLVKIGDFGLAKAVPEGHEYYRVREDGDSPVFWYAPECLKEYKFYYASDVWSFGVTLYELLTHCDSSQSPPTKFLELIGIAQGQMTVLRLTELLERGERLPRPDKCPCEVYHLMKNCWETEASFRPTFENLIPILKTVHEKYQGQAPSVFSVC
Sequence of Jak1 (GST-tagged human Jak1 kinase domain, amino acids 866-1154) (P23458 866-1154): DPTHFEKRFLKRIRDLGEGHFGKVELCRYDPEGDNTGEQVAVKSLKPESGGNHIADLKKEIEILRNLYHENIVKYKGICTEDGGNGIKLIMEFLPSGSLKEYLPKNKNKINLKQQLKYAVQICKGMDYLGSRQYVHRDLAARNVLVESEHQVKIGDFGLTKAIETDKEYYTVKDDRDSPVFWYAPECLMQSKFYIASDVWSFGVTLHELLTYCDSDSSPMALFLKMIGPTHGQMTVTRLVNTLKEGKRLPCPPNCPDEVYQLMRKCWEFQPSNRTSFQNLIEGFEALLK
Sequence of Jak2 (human Jak2 kinase domain, amino acids 808-1132) (O60674 808-1132): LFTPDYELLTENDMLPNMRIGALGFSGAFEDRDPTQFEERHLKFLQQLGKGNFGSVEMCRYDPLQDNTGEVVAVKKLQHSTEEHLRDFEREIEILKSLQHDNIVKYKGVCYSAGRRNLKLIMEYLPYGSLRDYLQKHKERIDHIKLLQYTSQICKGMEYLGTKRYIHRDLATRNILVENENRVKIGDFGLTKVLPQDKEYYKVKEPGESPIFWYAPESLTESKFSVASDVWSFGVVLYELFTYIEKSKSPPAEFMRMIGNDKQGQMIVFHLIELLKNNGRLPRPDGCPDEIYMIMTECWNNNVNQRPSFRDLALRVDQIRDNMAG

| inhibition at 1 µM [1, 5] [%] | inhibition at 1 µM [1, 6] [%] | inhibition at 1 µM [2] [%] | inhibition at 1 µM [3] [%] | inhibition at 1 µM [4] [%] | Compound |
| --- | --- | --- | --- | --- | --- |
| 72.3 | 53.3 | 36.4 | 7.2 | 16.2 | C[C@H](NC(=O)c1cnn2ccc(N3CCC[C@@H]3c3cncc(F)c3)nc12)C1CC1 [Example 124, N-((S)-1-cyclopropylethyl)-5-((R)-2-(5-fluoropyridin-3-yl)pyrrolidin-1-yl)pyrazolo[1,5-a]pyrimidine-3-carboxamide] |
| 13 | 9.4 | 8.6 | 0.8 | 13.8 | O=C(NC1CC1)c1cnn2ccc(N3CCC[C@@H]3c3cncc(F)c3)nc12 [Example 52, (R)—N-cyclopropyl-5-(2-(5-fluoropyridin-3-yl)pyrrolidin-1-yl)pyrazolo[1,5-a]pyrimidine-3-carboxamide] |
| 27.8 | 23.7 | 8.8 | 5.5 | 9.2 | O=C(NC1(C(F)(F)F)CC1)c1cnn2ccc(N3CCC[C@@H]3c3cncc(F)c3)nc12 [Example 98, (R)-5-(2-(5-fluoropyridin-3-yl)pyrrolidin-1-yl)-N-(1-(trifluoromethyl)cyclopropyl)pyrazolo[1,5-a]pyrimidine-3-carboxamide] |
| 98.5 | 90.1 | 64.2 | 20.2 | 34.8 | COc1ncc(F)cc1[C@H]1CCCN1c1ccn2ncc(C(=O)N[C@H]3CC[C@H](O)CC3)c2n1 [Example 140, 5-((R)-2-(5-fluoro-2-methoxypyridin-3-yl)pyrrolidin-1-yl)-N-((trans)-4-hydroxycyclohexyl)pyrazolo[1,5-a]pyrimidine-3-carboxamide] |
| 21 | 8 | 8.2 | 9.7 | 14.8 | O=C(NCC1CC1)c1cnn2ccc(N3CCC[C@@H]3c3cncc(F)c3)nc12 [Example 106, (R)-N-(cyclopropylmethyl)-5-(2-(5-fluoropyridin-3-yl)pyrrolidin-1-yl)pyrazolo[1,5-a]pyrimidine-3-carboxamide] |
| – | 6.7 | – | – | – | Cn1cc(F)cc([C@H]2CCCN2c2ccn3ncc(C(=O)N[C@H](CO)C(C)(C)C)c3n2)c1=O [Example 233, 5-((R)-2-(5-fluoro-1-methyl-2-oxo-1,2-dihydropyridin-3-yl)pyrrolidin-1-yl)-N-((S)-1-hydroxy-3,3-dimethylbutan-2-yl)pyrazolo[1,5-a]pyrimidine-3-carboxamide] |
| – | 51.9 | – | – | – | Cn1cc(F)cc([C@H]2CCCN2c2ccn3ncc(C(=O)NC4(C)CC4)c3n2)c1=O [Example 237, (R)-5-(2-(5-fluoro-1-methyl-2-oxo-1,2-dihydropyridin-3-yl)pyrrolidin-1-yl)-N-(1-methylcyclopropyl)pyrazolo[1,5-a]pyrimidine-3-carboxamide] |
| – | 5.8 | – | – | – | COCCOc1cc(F)cc([C@H]2CCCN2c2ccn3ncc(C(N)=O)c3n2)c1 [Example 78, (R)-5-(2-(3-fluoro-5-(2-methoxyethoxy)phenyl)pyrrolidin-1-yl)pyrazolo[1,5-a]pyrimidine-3-carboxamide] |
| – | 3.7 | – | – | – | CC(C)[C@@H](CO)NC(=O)c1cnn2ccc(N3CCC[C@@H]3c3cncc(F)c3)nc12 [Example 121, 5-((R)-2-(5-fluoropyridin-3-yl)pyrrolidin-1-yl)-N-((S)-1-hydroxy-3-methylbutan-2-yl)pyrazolo[1,5-a]pyrimidine-3-carboxamide] |
| – | 5.6 | – | – | – | CC(C)(O)CNC(=O)c1cnn2ccc(N3CCC[C@@H]3c3cc(F)ccc3F)nc12 [Example 17, (R)-5-(2-(2,5-difluorophenyl)pyrrolidin-1-yl)-N-(2-hydroxy-2-methylpropyl)pyrazolo[1,5-a]pyrimidine-3-carboxamide] |
| – | 0.3 | – | – | – | Cc1ncc(F)cc1[C@H]1CCCN1c1ccn2ncc(C(=O)N3CC(O)C3)c2n1 [Example 192, (R)-(5-(2-(5-fluoro-2-methylpyridin-3-yl)pyrrolidin-1-yl)pyrazolo[1,5-a]pyrimidin-3-yl)(3-hydroxyazetidin-1-yl)methanone] |
| – | 9.6 | – | – | – | COc1ncc(F)cc1[C@H]1CCCN1c1ccn2ncc(C(=O)NC[C@@H](C)O)c2n1 [Example 157, 5-((R)-2-(5-fluoro-2-methoxypyridin-3-yl)pyrrolidin-1-yl)-N-((R)-2-hydroxypropyl)pyrazolo[1,5-a]pyrimidine-3-carboxamide] |
| – | 77.4 | – | – | – | O=C(N[C@H]1CC[C@H](O)CC1)c1cnn2ccc(N3CCC[C@@H]3c3cccc(F)c3)nc12 [Example 35, 5-((R)-2-(3-fluorophenyl)pyrrolidin-1-yl)-N-((trans)-4-hydroxycyclohexyl)pyrazolo[1,5-a]pyrimidine-3-carboxamide] |
| – | -1.4 | – | – | – | NC(=O)c1cnn2ccc(N3CCC[C@@H]3c3cncc(F)c3)nc12 [Example 117, (R)-5-(2-(5-fluoropyridin-3-yl)pyrrolidin-1-yl)pyrazolo[1,5-a]pyrimidine-3-carboxamide] |
| – | 28 | – | – | – | COc1ccc(F)cc1[C@H]1CCCN1c1ccn2ncc(C(=O)NC[C@@H](O)CO)c2n1 [Example 56, N—((R)-2,3-dihydroxypropyl)-5-((R)-2-(5-fluoro-2-methoxyphenyl)pyrrolidin-1-yl)pyrazolo[1,5-a]pyrimidine-3-carboxamide] |
| – | 27.4 | – | – | – | COc1ncc(F)cc1[C@H]1CCCN1c1ccn2ncc(C(=O)Nc3ccc(=O)[nH]c3)c2n1 [Example 161, (R)-5-(2-(5-fluoro-2-methoxypyridin-3-yl)pyrrolidin-1-yl)-N-(6-oxo-1,6-dihydropyridin-3-yl)pyrazolo[1,5-a]pyrimidine-3-carboxamide] |
| – | 37 | – | – | – | CC1(C)OCC(COc2ccc(F)cc2[C@H]2CCCN2c2ccn3ncc(C(=O)NC4CC4)c3n2)O1 (stereo partly drawn) [Example 204, N-cyclopropyl-5-((2R)-2-(2-((2,2-dimethyl-1,3-dioxolan-4-yl)methoxy)-5-fluorophenyl)pyrrolidin-1-yl)pyrazolo[1,5-a]pyrimidine-3-carboxamide] |
| – | 17.3 | – | – | – | NC(=O)c1cnn2ccc(N3CCC[C@@H]3c3cc(F)ccc3OCCN3CCOCC3)nc12 [Example 86, (R)-5-(2-(5-fluoro-2-(2-morpholinoethoxy)phenyl)pyrrolidin-1-yl)pyrazolo[1,5-a]pyrimidine-3-carboxamide] |
| – | 34.1 | – | – | – | CONC(=O)c1cnn2ccc(N3CCC[C@@H]3c3cc(F)ccc3F)nc12 [Example 65, (R)-5-(2-(2,5-difluorophenyl)pyrrolidin-1-yl)-N-methoxypyrazolo[1,5-a]pyrimidine-3-carboxamide] |
| – | 84 | – | – | – | NS(=O)(=O)N1CCC(NC(=O)c2cnn3ccc(N4CCC[C@@H]4c4cc(F)ccc4F)nc23)CC1 [Example 45, (R)-5-(2-(2,5-difluorophenyl)pyrrolidin-1-yl)-N-(1-sulfamoylpiperidin-4-yl)pyrazolo[1,5-a]pyrimidine-3-carboxamide] |
| – | 2.8 | – | – | – | O=C(c1cnn2ccc(N3CCC[C@@H]3c3cncc(F)c3)nc12)N1CC(O)C1 [Example 108, (R)-(5-(2-(5-fluoropyridin-3-yl)pyrrolidin-1-yl)pyrazolo[1,5-a]pyrimidin-3-yl)(3-hydroxyazetid-1-yl)methanone] |
